Measurements: patent publication US9233093B2, “Composition and/or method for preventing recurrence of stroke” (MOCHIDA PHARMACEUTICALS CO., LTD., priority 2006, dated 2016)
“And” between values parts separate entries of the source, which are not always exact repeats. Identical values can stand only once.

How the values were obtained:
[1] = system: hyperlipidemia patients having history of stroke (onset/recurrence of stroke); experiment: DELIS (Japan EPA Lipid Intervention Study) partial analysis: recurrence of stroke over 5 years in patients with history of stroke; assay type: in vivo, human; set-up: Inhibition Rate (%): concentration or dose not given beside the values; conditions: for Incidence rate (%) of EPA-E group: TG less than 400 mg/dL; for Inhibition Rate (%): vs control group; for reduction of the incidence rate of stroke (in words): time course 1 to 5 years
Method: This trial is a partial analysis of the results obtained in DELIS (Japan EPA Lipid Intervention Study), a large scale clinical trial of high purity EPA preparation which was presented at the American College of Cardiology 2005 Annual Meeting.
Specifically, of the 18,645 subject patients in the DELIS trial (hyperlipidemia patients with serum T-Cho concentration of 250 mg/dl or more, at ages of 40 to 75 for male and […] to 75 for female; the patients within six months from the onset of stroke were excluded in order to exclude patients in the acute period of the stroke from the trial subjects) (EPA-E group (9,326 cases) and control group (9,319 cases)), 485 subjects from the EPA-E group and 457 subjects from the control group, having history of stroke (cerebral thrombosis, cerebral embolism, intracerebral hemorrhage, subarachnoid hemorrhage, and transient ischemic attack) were observed and analyzed for the recurrence of stroke during the period of 5 years from the start of the administration. Further, for the cases where serum TG/HDL-C ratio was known (but excluding the cases where TG value was 400 mg/dl or more), results from the subjects divided into three groups based on the serum TG/HDL-C ratio at the time of registration were also analyzed. The EPA-E group was orally administered with Epadel (Mochida Pharmaceutical Co., Ltd.) typically at an adult dose of 600 mg per administration and 3 times a day immediately after the meal. However, in the cases having abnormal serum TG, the dose could be increased up to 900 mg per administration and 3 times a day, depending on the abnormality. In both groups, pravastatin sodium (Mevalotin™ tablets and fine granules, Sankyo Co., Ltd.), simvastatin (Lipovas™ tablets, Banyu Pharmaceutical Co., Ltd.), or atorvastatin calcium hydrate (Lipitor™ tablets, Astellas Pharma Inc. and Pfizer) was used as a base drug (basal treatment), which was orally administered according to a predetermined dosage regimen.
The number of onset (recurrence) of stroke, the incidence rate (%), and the odds ratio for the EPA-E group in relation to the control group during the observation period of 5 years are shown in Table 1. The odds ratio was calculated by the equation of (incidence rate of the EPA-E group)/(incidence rate of the control group), and the inhibition rate of onset of stroke was calculated by the equation of {((incidence rate of stroke for the control group)−(incidence rate of stroke for the EPA-E group))/(incidence rate of stroke for the control group)}×100.
Further, the data described above were statistically analyzed by taking biases in the background (smoking habit, diabetes, etc.) between the groups into consideration.
Similarly, for the cases where serum TG/HDL-C ratio was known (but excluding the cases where TG value was 400 mg/dl or more), each of the three groups of subjects, which are divided based on the serum TG/HDL-C ratio at the time of registration, was analyzed on the number of onset (recurrence) of stroke, the incidence rate (%), and the odds ratio for the EPA-E group in relation to the control group during the observation period of 5 years, as shown in Table 4. The odds ratio was calculated by the equation of (incidence rate of the EPA-E group)/(incidence rate of the control group), and the inhibition rate of onset of stroke was calculated by the equation of {((incidence rate of stroke for the control group)−(incidence rate of stroke for the EPA-E group))/(incidence rate of stroke for the control group)}×100.

[2] = system: hyperlipidemia patients (cardiac events); conditions: use in combination with statin; large scale clinical trial; cited from earlier work
[3] = after 1 year, serum TG/HDL-C ratio 3.75 or more
[4] = after 2 years, serum TG/HDL-C ratio 3.75 or more
[5] = after 3 years, serum TG/HDL-C ratio 3.75 or more
[6] = after 4 years, serum TG/HDL-C ratio 3.75 or more
[7] = after 5 years, serum TG/HDL-C ratio 3.75 or more
[8] = all patients with history of stroke, 5 years
[9] = cerebral thrombosis, patients with history of stroke, 5 years
[10] = serum TG/HDL-C ratio at registration less than 1, TG less than 400 mg/dl, 5 years
[11] = total of infarction type diseases, patients with history of stroke, 5 years

For `CC/C=C\C/C=C\C/C=C\C/C=C\C/C=C\CCCC(=O)OCC` [EPA-E, ethyl icosapentate], the “Incidence rate (%) in EPA-E group” value ([1]; after 1 year, all patients with history of stroke, analyzed taking background biases into consideration) was 2.1%, the “Incidence rate (%) of EPA-E group” value [1, 3] was 1.5% and the “Inhibition Rate (%)” value [1, 3] was 17%. The “Incidence rate (%) in EPA-E group” value ([1]; after 2 years, all patients with history of stroke, bias-adjusted analysis) was 3.6%, the “Inhibition Rate (%)” value ([1]; after 2 years, all patients with history of stroke) was 8% and the “Incidence rate (%) of EPA-E group” value [1, 4] was 2.9%. The “Inhibition Rate (%)” value [1, 4] was 53%, the “Incidence rate (%) in EPA-E group” value ([1]; after 3 years, all patients with history of stroke, bias-adjusted analysis) was 4.7% and the “Inhibition Rate (%)” value ([1]; after 3 years, all patients with history of stroke) was 16%. For the same molecule, the “Incidence rate (%) of EPA-E group” value [1, 5] was 4.4%, the “Inhibition Rate (%)” value [1, 5] was 29% and the “Incidence rate (%) in EPA-E group” value ([1]; after 4 years, all patients with history of stroke, bias-adjusted analysis) was 5.7%. For the same molecule, the “Inhibition Rate (%)” value ([1]; after 4 years, all patients with history of stroke) was 35%, the “Incidence rate (%) of EPA-E group” value [1, 6] was 5.2% and the “Inhibition Rate (%)” value [1, 6] was 55%. The “Incidence rate (%) in EPA-E group” value ([1]; after 5 years, all patients with history of stroke, bias-adjusted analysis) was 7.4%, the “Inhibition Rate (%)” value ([1]; after 5 years, all patients with history of stroke) was 37% and the “Incidence rate (%) of EPA-E group” value [1, 7] was 7.4%. For the same molecule, the “Inhibition Rate (%)” value [1, 7] was 48%, the “Odds ratio (incidence rate of EPA-E group/incidence rate of control group)” value [1, 8] was 0.648 and the “reduction of incidence rate of stroke compared with the control group” value [1, 8] was “about 35%”. The “Stroke cases/All cases” value ([1]; all patients with history of stroke, observation period of 5 years, Epadel 600 mg 3 times a day (up to 900 mg) plus statin base drug) was 33/485, the “reduction of the incidence rate of stroke (in words)” value ([1]; all patients with history of stroke) was “significant at 3 years or later after the start of the administration” and the “Stroke cases/All cases, cerebral thrombosis” value [1, 9] was 13/485. The “incidence rate, cerebral thrombosis” value [1, 9] was “(2.9%)”, the “number of cases and incidence rates of hemorrhage type diseases vs control group” value ([1]; hemorrhage type diseases, patients with history of stroke) was “lower” and the “reduction of the incidence rate of stroke (in words)” value ([1]; patients with serum TG/HDL-C ratio 3.75 or more) was “significant at 3 years or later after the start of the administration”. The “reduction of incidence rate of stroke compared to the control group” value ([1]; serum TG/HDL-C ratio 1 or more but less than 3.75, 5 years) was “about 36%”, the “reduction of incidence rate of stroke compared to the control group” value ([1]; serum TG/HDL-C ratio 3.75 or more, 5 years) was “about 48%” and the “Odds ratio (incidence rate of EPA-E group/incidence rate of control group)” value ([1]; serum TG/HDL-C ratio at registration 1 to 3.75, 5 years) was 0.640. The “Stroke cases/All cases” value ([1]; serum TG/HDL-C ratio at registration 1 to 3.75, TG less than 400 mg/dl, 5 years) was 14/244, the “Odds ratio (incidence rate of EPA-E group/incidence rate of control group)” value ([1]; serum TG/HDL-C ratio at registration 3.75 or more, 5 years) was 0.519 and the “Stroke cases/All cases” value ([1]; serum TG/HDL-C ratio at registration 3.75 or more, TG less than 400 mg/dl, 5 years) was 10/135. The “Stroke cases/All cases” value [1, 10] was “no onset of stroke was observed and 0/18”, the “incidence rate of stroke” value [1, 10] was “(0.0) %” and the “Stroke cases/All cases, total of infarctions” value [1, 11] was 28/485. The “incidence rate, total of infarctions” value [1, 11] was “(6.20) %” and the inhibiting cardiac events [2] was “effective”.
